From article PMC7817688, “Identification of 3-chymotrypsin like protease (3CLPro) inhibitors as potential anti-SARS-CoV-2 agents” (Communications Biology, 2021)
pIC50: −log10 of the molar value. Several values for one entry are separate records, joined by “and”; a condition that tells them apart may be missing. Equal values may be shown once.

Target: SARS-CoV-2 3CLpro enzyme (Severe acute respiratory syndrome coronavirus 2, UniProt P0DTD1)
Test: biochemical
Settings: for percent enzymatic activity, individual values / percent enzymatic activity, AVG / inhibition at 50 µM: 50 µM drug; for percent enzymatic activity, individual values / percent enzymatic activity, AVG: DMSO treated control = 100%, data of Figs. 2-4; for percent enzymatic activity, AVG: mean of 3 values; for inhibitory effect towards 3CLpro enzymatic activity (in words): in vitro enzymatic assay at the tested doses
[1] = dose-dependent study, 0.097656 uM, individual values
[2] = dose-dependent study, 0.097656 uM, individual values, read-out: % activity
[3] = dose-dependent study, 0.195313 uM, individual values
[4] = dose-dependent study, 0.390625 uM, individual values
[5] = dose-dependent study, 0.390625 uM, individual values, read-out: % activity
[6] = dose-dependent study, 0.78125 uM, individual values
[7] = dose-dependent study, 0.78125 uM, individual values, read-out: % activity
[8] = dose-dependent study, 1.5625 uM, individual values
[9] = dose-dependent study, 3.125 uM, individual values
[10] = dose-dependent study, 3.125 uM, individual values, read-out: % activity
[11] = dose-dependent study, 12.5 uM, individual values
[12] = dose-dependent study, 12.5 uM, individual values, read-out: % activity
[13] = dose-dependent study, 25 uM, individual values
[14] = dose-dependent study, 50 uM, individual values
[15] = dose-dependent study, 100 uM, individual values
[16] = read-out: inhibition of 3CLpro enzymatic activity
[17] = dose-dependent study, 0.048828 uM, individual values

COC(=O)N[C@H](C(=O)N1CCC[C@H]1c1nc2cc([C@H]3CC[C@H](c4cc5nc([C@@H]6CCCN6C(=O)[C@@H](NC(=O)OC)[C@@H](C)OC)[nH]c5cc4F)N3c3cc(F)c(N4CCC(c5ccc(F)cc5)CC4)c(F)c3)c(F)cc2[nH]1)[C@@H](C)OC [Pibrentasvir]
percent enzymatic activity, individual values: 62.0438% and 66.4234% and 69.3431% | percent enzymatic activity, AVG: 65.9367%

CC(C)(C)NC(=O)[C@@H]1C[C@@H]2CCCC[C@@H]2CN1C[C@@H](O)[C@H](Cc1ccccc1)NC(=O)[C@H](CC(N)=O)NC(=O)c1ccc2ccccc2n1 [Saquinavir]
percent enzymatic activity, individual values: 65.8986% and 67.2811% and 76.0369% | percent enzymatic activity, AVG: 69.7389%

CN(C)C(=O)COC(=O)Cc1ccc(OC(=O)c2ccc(NC(=N)N)cc2)cc1 [Camostat]
percent enzymatic activity, individual values: 94.4701% and 101.843% and 102.304% | percent enzymatic activity, AVG: 99.5392%

Nc1nc(NC2CC2)c2ncn([C@H]3C=C[C@@H](CO)C3)c2n1 [Abacavir]
percent enzymatic activity, individual values: 85.8927% and 88.8256% and 90.5015% (2×) | percent enzymatic activity, AVG: 88.4066%

CO[C@@H]1[C@H](OC(=O)/C=C/C=C/C=C/C=C/C(=O)O)CC[C@]2(CO2)[C@H]1[C@@]1(C)O[C@@H]1CC=C(C)C [Fumagillin]
percent enzymatic activity, individual values: 70.8091% and 76.2559% and 71.647% | percent enzymatic activity, AVG: 72.904%

CCN(CC)CCCC(C)Nc1ccnc2cc(Cl)ccc12 (centres unmarked) [Chloroquine]
percent enzymatic activity, individual values (listed as Chloroquine Phosphate): 103.986% and 93.4637% and 103.367% | percent enzymatic activity, AVG: 100.272%

CCC(C)n1ncn(-c2ccc(N3CCN(c4ccc(OCC5COC(Cn6cncn6)(c6ccc(Cl)cc6Cl)O5)cc4)CC3)cc2)c1=O (centres unmarked) [Itraconazole]
percent enzymatic activity, individual values: 81.4131% and 90.2946% and 93.255% | percent enzymatic activity, AVG: 88.3209%

CC(C)c1c(C(=O)Nc2ccccc2)c(-c2ccccc2)c(-c2ccc(F)cc2)n1CC[C@@H](O)C[C@@H](O)CC(=O)O [Atrovastatin]
percent enzymatic activity, individual values: 92.1569% and 107.843% and 99.0196% | percent enzymatic activity, AVG: 99.6732%

CCC(CC)[C@H](NC(C)=O)[C@@H]1[C@H](O)[C@@H](C(=O)O)C[C@H]1N=C(N)N [Peramivir]
percent enzymatic activity, individual values: 99.7193% and 97.2053% and 109.775% | percent enzymatic activity, AVG: 102.233%

O=C(O)[C@H]1C2CCC(CC2)[C@@H]1Nc1nc(-c2c[nH]c3ncc(F)cc23)ncc1F [Pimodivir]
percent enzymatic activity, individual values (listed as Pimodvir): 92.1775% and 98.4623% and 116.898% | percent enzymatic activity, AVG: 102.513%

CCC[C@H](NC(=O)[C@@H]1[C@H]2CCC[C@H]2CN1C(=O)[C@@H](NC(=O)[C@@H](NC(=O)c1cnccn1)C1CCCCC1)C(C)(C)C)C(=O)C(=O)NC1CC1 [Telaprevir]
percent enzymatic activity, individual values: 64.9635% and 42.7007% and 84.6715% | percent enzymatic activity, AVG: 64.1119%

Maraviroc
percent enzymatic activity, individual values: 91.5462% and 88.779% and 142.739%

CC(C)c1nc(CN(C)C(=O)N[C@H](C(=O)N[C@@H](Cc2ccccc2)C[C@H](O)[C@H](Cc2ccccc2)NC(=O)OCc2cncs2)C(C)C)cs1 [Ritonavir]
percent enzymatic activity, individual values: 82.0276% and 87.5576% and 91.2442% | percent enzymatic activity, AVG: 86.9432% | inhibitory effect towards 3CLpro enzymatic activity (in words): did not exhibit any 3CLpro inhibitory activity

CC(C)(C)OC(=O)N[C@H]1CCCCC/C=C\[C@@H]2C[C@@]2(C(=O)NS(=O)(=O)C2CC2)NC(=O)[C@@H]2C[C@@H](OC(=O)N3Cc4cccc(F)c4C3)CN2C1=O [Danoprevir]
percent enzymatic activity, individual values: 70.073% and 72.9927% and 80.6569% | percent enzymatic activity, AVG: 74.5742%

NC[C@H]1O[C@H](O[C@H]2[C@H](O[C@@H]3O[C@H](CO)[C@@H](O)[C@H]3O)[C@@H](O)[C@H](N)C[C@@H]2N)[C@H](N)[C@@H](O)[C@@H]1O [Ribostamycin]
percent enzymatic activity, individual values: 96.7864% and 99.3003% | percent enzymatic activity, AVG: 98.4623%

CC(C)(C)[C@@H]1NC(=O)O[C@@H]2CCC[C@H]2OC/C=C/C(F)(F)c2nc3ccccc3nc2O[C@@H]2C[C@@H](C(=O)N[C@]3(C(=O)NS(=O)(=O)C4(C)CC4)C[C@H]3C(F)F)N(C2)C1=O [Glecaprevir]
percent enzymatic activity, individual values: 92.7616% and 89.3077% and 94.7353% | percent enzymatic activity, AVG: 92.2682%

CC(C)CN(C[C@@H](O)[C@H](Cc1ccccc1)NC(=O)O[C@H]1CO[C@H]2OCC[C@H]21)S(=O)(=O)c1ccc(N)cc1 [Darunavir]
percent enzymatic activity, individual values: 90.3226% and 93.0876% and 98.6175% | percent enzymatic activity, AVG: 94.0092%

CCN(CCO)CCCC(C)Nc1ccnc2cc(Cl)ccc12 (centres unmarked) [Hydroxychloroquine]
percent enzymatic activity, individual values (listed as Hydrochloroquine): 83.3868% and 88.8143% and 90.788% | percent enzymatic activity, AVG: 87.663%

CCC[C@@]1(CCc2ccccc2)CC(O)=C([C@H](CC)c2cccc(NS(=O)(=O)c3ccc(C(F)(F)F)cn3)c2)C(=O)O1 [Tipranavir]
percent enzymatic activity, individual values: 30.4148% and 38.7097% and 37.3272% | percent enzymatic activity, AVG: 35.4839% | % activity [1]: 82.4284% (2×) and 99.6504% | activity at 0.097656 µM [2]: 101% | % activity [3]: 93.9114% and 73.379% and 92.2647% and 99.6504% | % activity [4]: 86.3629% and 90.6909% and 88.1724% | activity at 0.390625 µM [5]: 104% | % activity [6]: 90.2974% and 88.7236% and 98.607% | activity at 0.78125 µM [7]: 109% | % activity [8]: 116.346% and 88.7236% and 94.6254% | % activity [9]: 93.8385% and 93.4451% and 104.346% | activity at 3.125 µM [10]: 110% | % activity (dose-dependent study, 6.25 uM, individual values): 117.389% and 86.7564% and 86.3629% | % activity [11]: 89.5105% and 88.3302% and 98.0853% | activity at 12.5 µM [12]: 107% | % activity [13]: 75.6509% and 84.3957% and 93.4451% and 63.6511% | % activity [14]: 69.8379% and 61.9688% and 53.2165% | activity at 50 µM [14]: 57.4% | % activity [15]: 47.9992% and 60.395% and 69.8379% and 42.7819% | pIC50 (drugs 0 to 100 µM, 50 µM substrate, non-linear four variable fit, read-out: IC50 for SARS-CoV-2 3CL protease): 4.56 | inhibitory effect towards 3CLpro enzymatic activity (in words): partial inhibitory effect | inhibition at 50 µM [16]: 64% | inhibition at 100 µM (read-out: inhibition of 3CLpro enzymatic activity, 100 µM drug): 50%

CCC(CC)COC(=O)[C@H](C)N[P@](=O)(OC[C@H]1O[C@@](C#N)(c2ccc3c(N)ncnn23)[C@H](O)[C@@H]1O)Oc1ccccc1 [Remdesivir]
percent enzymatic activity, individual values: 83.5766% and 41.9708% and 50.7299% | percent enzymatic activity, AVG: 58.7591%

CC[C@@H]([C@H](C)O)n1ncn(-c2ccc(N3CCN(c4ccc(OC[C@@H]5CO[C@@](Cn6cncn6)(c6ccc(F)cc6F)C5)cc4)CC3)cc2)c1=O [Posaconazole]
percent enzymatic activity, individual values: 84.6282% and 81.1692% | percent enzymatic activity, AVG: 83.4752%

Cc1cc(CCCOc2c(C)cc(-c3noc(C(F)(F)F)n3)cc2C)on1 [Pleconaril]
percent enzymatic activity, individual values: 89.2446% and 86.7306% and 85.4737% | percent enzymatic activity, AVG: 87.1496%

CCOC(=O)c1c(CSc2ccccc2)n(C)c2cc(Br)c(O)c(CN(C)C)c12 [Umifenovir]
percent enzymatic activity, individual values: 80.6569% and 86.8613% and 87.2263% | percent enzymatic activity, AVG: 84.9148%

CC(C)(C)NC(=O)N[C@H](C(=O)N1C[C@H]2[C@@H]([C@H]1C(=O)NC(CC1CCC1)C(=O)C(N)=O)C2(C)C)C(C)(C)C (some centres unmarked) [Boceprevir]
percent enzymatic activity, individual values: 54.8875% and 56.5635% and 59.0774% | percent enzymatic activity, AVG: 56.8428% | % activity [17]: 71.4825% | activity at 0.048828 µM [17]: 72.9% | % activity [1]: 78.9417% and 76.1445% | activity at 0.097656 µM [2]: 75.2% | % activity [3]: 74.7459% | activity at 0.195313 µM (dose-dependent study, 0.195313 uM, individual values, read-out: % activity): 73.3% | % activity [4]: 72.4149% | activity at 0.390625 µM [5]: 77.1% | % activity [6]: 70.5501% and 71.9487% | activity at 0.78125 µM [7]: 71% | % activity [8]: 78.9417% and 72.4149% | activity at 1.5625 µM (dose-dependent study, 1.5625 uM, individual values, read-out: % activity): 74.3% | % activity [9]: 84.5361% | activity at 3.125 µM [10]: 73.3% | activity at 6.25 µM (dose-dependent study, 6.25 uM, individual values, read-out: % activity): 73.8% | % activity [11]: 70.0839% and 64.9557% | activity at 12.5 µM [12]: 61.2% | % activity [13]: 57.4965% and 56.0979% | activity at 25 µM [13]: 51.9% | % activity [14]: 41.6457% and 41.1795% | activity at 50 µM [14]: 37.4% | % activity [15]: 29.5245% and 31.8555% | activity at 100 µM (dose-dependent study, 100 uM, individual values, read-out: % activity): 26.7% | inhibitory effect towards 3CLpro enzymatic activity (in words): partial inhibitory effect | inhibition at 50 µM [16]: 45%

COc1cnc(-n2cnc(C)n2)c2[nH]cc(C(=O)C(=O)N3CCN(C(=O)c4ccccc4)CC3)c12 [Temsavir]
percent enzymatic activity, individual values: 93.8534% and 98.0433% and 100.976% | percent enzymatic activity, AVG: 97.6243%

Cc1cc(C#N)cc(C)c1Oc1nc(Nc2ccc(C#N)cc2)nc(N)c1Br [Etravirine]
percent enzymatic activity, individual values: 85.8927% and 97.6243% and 93.0155% | percent enzymatic activity, AVG: 92.1775%

Cc1cccc(C)c1OCC(=O)N[C@@H](Cc1ccccc1)[C@@H](O)C[C@H](Cc1ccccc1)NC(=O)[C@H](C(C)C)N1CCCNC1=O [Lopinavir]
percent enzymatic activity, individual values: 75.576% and 76.4977% and 84.3318% | percent enzymatic activity, AVG: 78.8018% | inhibitory effect towards 3CLpro enzymatic activity (in words): did not exhibit any 3CLpro inhibitory activity
